Assay [1] addresses human cyclin E-CDK2 (Homo sapiens, UniProt P24941). The assay can be described thus: FlashPlate kinase assay, cyclin E-CDK2. Type of assay: biochemical. The conditions noted are these: Rb protein substrate, 1 μM ATP, 33P-ATP, 30 minutes room temperature.
Assay [2] has as its system HCT116, a colorectal carcinoma cell line. The assay can be described thus: Tetrazolium dye (MTT) proliferation assay. The conditions noted are these: Homo sapiens, HCT-116; HCT116 cells, inhibition of cell proliferation. It counts as cell-based. The method, then: Proliferation was evaluated by the tetrazolium dye assay according to the procedure of Denizot and Lang (Denizot, F. and Lang, R. J Immunol Methods 1986, 89, 271–277). The cell line used was HCT116, a colorectal carcinoma cell line obtained from the American Type Cell Culture Collection (ATCC; Rockville, Md.). The cells were grown in McCoy's 5A medium supplemented with 10% FCS and L-glutamine.
Cells were plated at the appropriate seeding density to give logarithmic growth over the course of the assay in a 96-well tissue culture plate. Plates were incubated overnight at 37° C. in a humidified incubator with 5% CO2. The next day, test compounds were serially diluted to four times the final concentration in the appropriate medium containing 1.2% DMSO. One-fourth final volume of each dilution was added in duplicate to the plates containing cells. The same volume of 1.2% DMSO in medium was added to a row of “control wells” such that the final concentration of DMSO in each well was 0.3%. Wells to which no cells were added served as the “blank.” Wells to which no inhibitor was added served as “no inhibitor control.” The plates were) returned to the incubator, and at set time points (determined by their growth curves) plates were analyzed as described below.
3-(4,5-dimethylthiazole-2-yl)-2,5-diphenyl-2H-tetrazolium bromide (thiazolyl blue; MTT; Sigma) was added to each well to yield a final concentration of 1 mg/ml. Plates were returned to the incubator for 2.5–3 hours at 37° C. The MTT-containing medium was removed and the resulting formazan metabolite was solubilized in 100% ethanol with shaking for 15 minutes at room temperature. Absorbance readings were taken in a microtiter plate reader (Dynatech and Molecular Devices plate readers were used interchangeably) at a wavelength of 570 nm with a 650 nm reference. Percent inhibition (% INH) is calculated by subtracting the absorbance of the blank well from all wells, then subtracting the ratio of the average absorbance of each test duplicate (SAVE) by the average of the controls (CAVE) from 1.00. The final number is then multiplied by 100 (% INH=(1.00−SAVE/CAVE)×100). The concentration at which 50% inhibition of cell proliferation is obtained (the IC50) is determined from the linear regression of a plot of the logarithm of the concentration versus percent inhibition.

For assay [3], the target named is human cyclin D1-CDK4 (Homo sapiens, UniProt P11802). The assay can be described thus: FlashPlate kinase assay, cyclin D1-CDK4. It counts as biochemical. The conditions noted are these: Rb protein substrate, 1 μM ATP, 33P-ATP, 30 minutes room temperature; read-out: CDK4 IC50.
human cyclin D1-CDK4, sequence (P11802 whole entry): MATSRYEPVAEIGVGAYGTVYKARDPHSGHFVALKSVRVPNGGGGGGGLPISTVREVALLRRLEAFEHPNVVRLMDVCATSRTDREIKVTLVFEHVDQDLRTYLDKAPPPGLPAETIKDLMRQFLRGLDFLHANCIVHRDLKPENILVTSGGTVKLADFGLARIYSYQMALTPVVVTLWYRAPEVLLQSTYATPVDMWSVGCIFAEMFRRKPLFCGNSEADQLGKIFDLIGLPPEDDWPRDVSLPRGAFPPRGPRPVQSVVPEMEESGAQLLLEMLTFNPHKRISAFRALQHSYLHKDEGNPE
human cyclin D1-CDK4, sequence (P24385 whole entry partner): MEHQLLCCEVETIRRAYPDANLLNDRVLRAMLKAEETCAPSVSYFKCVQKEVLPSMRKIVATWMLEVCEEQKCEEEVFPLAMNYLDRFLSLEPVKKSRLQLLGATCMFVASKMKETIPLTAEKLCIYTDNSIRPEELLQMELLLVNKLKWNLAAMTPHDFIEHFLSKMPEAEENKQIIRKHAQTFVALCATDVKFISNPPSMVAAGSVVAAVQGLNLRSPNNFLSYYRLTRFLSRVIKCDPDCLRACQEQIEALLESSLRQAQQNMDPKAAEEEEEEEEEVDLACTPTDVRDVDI
In assay [4] the target is human cyclin B-CDK1 (Homo sapiens, UniProt P06493). Briefly: FlashPlate kinase assay, cyclin B-CDK1. Type of assay: biochemical. Conditions: Rb protein substrate, 1 μM ATP, 33P-ATP, 30 minutes room temperature.
human cyclin B-CDK1, sequence (P06493 whole entry): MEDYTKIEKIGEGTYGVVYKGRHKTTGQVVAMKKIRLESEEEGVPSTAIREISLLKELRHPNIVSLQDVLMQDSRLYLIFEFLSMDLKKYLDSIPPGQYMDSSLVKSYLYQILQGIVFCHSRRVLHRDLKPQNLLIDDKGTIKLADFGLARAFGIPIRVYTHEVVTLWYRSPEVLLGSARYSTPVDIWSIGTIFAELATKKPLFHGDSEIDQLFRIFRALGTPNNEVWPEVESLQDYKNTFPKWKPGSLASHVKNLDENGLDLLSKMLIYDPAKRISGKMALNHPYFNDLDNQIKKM
human cyclin B-CDK1, sequence (P14635 whole entry partner): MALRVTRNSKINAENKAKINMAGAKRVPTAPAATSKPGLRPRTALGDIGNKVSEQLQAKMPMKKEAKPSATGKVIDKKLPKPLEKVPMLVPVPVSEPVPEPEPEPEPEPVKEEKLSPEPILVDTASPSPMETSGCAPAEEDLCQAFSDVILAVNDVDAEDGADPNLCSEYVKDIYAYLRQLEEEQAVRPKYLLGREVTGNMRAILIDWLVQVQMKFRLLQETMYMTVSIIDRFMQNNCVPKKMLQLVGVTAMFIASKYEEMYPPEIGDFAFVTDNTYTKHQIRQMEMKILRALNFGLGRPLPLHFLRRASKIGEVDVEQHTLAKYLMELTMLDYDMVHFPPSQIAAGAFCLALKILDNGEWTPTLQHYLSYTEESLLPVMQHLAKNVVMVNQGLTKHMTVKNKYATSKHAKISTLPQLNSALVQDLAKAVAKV

As to `CCNC1CCN(c2ccc(Nc3nc(N)c(C(=O)c4ccc(OC)c(F)c4)s3)cc2)C1` (stereo not drawn) [Example 133, {4-Amino-2-[4-(3-ethylamino-pyrrolidin-1-yl)-phenylamino]-thiazol-5-yl}-(3-fluoro-4-methoxy-phenyl)-methanone], the IC50 in assay [1] amounted to 3.27 µM; in assay [2], 1.02 µM; in assay [3], 0.066 µM; in assay [4], 1.86 µM.

With `CCNC1CCN(c2ccc(Nc3nc(N)c(C(=O)c4ccc(OC)c(F)c4)s3)cc2)CC1` [Example 136, {4-Amino-2-[4-(4-ethylamino-piperidin-1-yl)-phenylamino]-thiazol-5-yl}-(3-fluoro-4-methoxy-phenyl)-methanone], the IC50 was 9.43 µM in assay [1], 3.26 µM in assay [2], 0.05 µM in assay [3] and 1.56 µM in assay [4].

`CCNC1CCN(c2ccc(Nc3nc(N)c(C(=O)c4cccc(OC)c4)s3)cc2)C1` (stereo not drawn) [Example 134, {4-Amino-2-[4-(3-ethylamino-pyrrolidin-1-yl)-phenylamino]-thiazol-5-yl}-(3-methoxy-phenyl)-methanone]: the IC50 in assay [1] is 4.5 µM; in assay [2] it was 1.24 µM; in assay [3], 0.046 µM; in assay [4], 1.33 µM.

Regarding `CN(C)C1CCN(c2ccc(Nc3nc(N)c(C(=O)c4ccc5c(c4)OCCO5)s3)cc2)CC1` [Example 44, {4-Amino-2-[4-(4-dimethylamino-piperidin-1-yl)-phenylamino]-thiazol-5-yl}-(2,3-dihydro-benzo[1,4]dioxin-6-yl)-methanone], the IC50 in assay [1] was found to be 5.13 µM; in assay [2] it was 1.72 µM; in assay [3], 0.016 µM; in assay [4] it was 1.25 µM.

Consider `COc1cccc(C(=O)c2sc(Nc3ccc(N4CCC(N5CCCCC5)CC4)cc3)nc2N)c1` [Example 34, [4-Amino-2-(4-[1,4′]bipiperidinyl-1′-yl-phenylamino)-thiazol-5-yl]-(3-methoxy-phenyl)-methanone], for which the IC50 came out at 0.952 µM in assay [1], 0.008 µM in assay [2], 3.64 µM in assay [3] and 1.68 µM in assay [4].

With `COc1cccc(C(=O)c2sc(Nc3ccc(N4CCC(N(C)C)CC4)cc3)nc2N)c1` [Example 45, {4-Amino-2-[4-(4-dimethylamino-piperidin-1-yl)-phenylamino]-thiazol-5-yl}-(3-methoxy-phenyl)-methanone], the IC50 in assay [1] was 5.16 µM; in assay [2], 2.46 µM; in assay [3], 0.005 µM; in assay [4], 2.44 µM.

As for `Nc1nc(Nc2ccc(N3CCC(N4CCCC4)CC3)cc2)sc1C(=O)c1ccc2c(c1)OCO2` [Example 25, {4-Amino-2-[4-(4-pyrrolidin-1-yl-piperidin-1-yl)-phenylamino]-thiazol-5-yl}-benzo[1,3]dioxol-5-yl-methanone], the IC50 came to 2.89 µM in assay [1], 2 µM in assay [2], 0.017 µM in assay [3] and 0.216 µM in assay [4].

Consider `Nc1nc(Nc2ccc(N3CCC(N4CCCCC4)CC3)cc2)sc1C(=O)c1ccc2c(c1)OCCO2` [Example 33, [4-Amino-2-(4-[1,4′]bipiperidinyl-1′-yl-phenylamino)-thiazol-5-yl]-(2,3-dihydro-benzo[1,4]dioxin-6-yl)-methanone], for which the IC50 in assay [1] worked out at 4.95 µM; in assay [2], 1.68 µM; in assay [3] it was 0.009 µM; in assay [4], 0.95 µM.

On to `CCc1cccc(C(=O)c2sc(Nc3ccc(N4CCC(N5CCOCC5)CC4)cc3)nc2N)c1` [Example 116, {4-Amino-2-[4-(4-morpholin-4-yl-piperidin-1-yl)-phenylamino]-thiazol-5-yl}-(3-ethyl-phenyl)-methanone], for which the IC50 amounted to 0.75 µM in assay [1], 2.55 µM in assay [2], 0.015 µM in assay [3] and 5.59 µM in assay [4].

In general, IC50 refers to the concentration that inhibits the measured activity by half.

The values above are taken from patent US7211576B2, “Diaminothiazoles” (Hoffmann-La Roche Inc., priority 2004, dated 2007).
